Reference: patent publication US20260355184A1, “SMALL MOLECULE DEGRADERS OF HIV-1 TAT PROTEIN” (priority 2022, published 2026)
pIC50: −log10 of the molar value. Where two headings read alike, the source gives them in different places.

Tests used:
[1] = Cytotoxicity assay, Cell-Titer-Glo, HeLa-CD4-LTR-LacZ; details: human, hela-cd4-ltr-lacz cells, Infectivity CC50, HeLa-CD4-LTR-LacZ
Experimental: (§1) Next, the activity of these leads against HIV infection was evaluated using the reporter cell line HeLa-CD4-LTR-LacZ, which stably expresses the β-galactosidase (β-Gal) gene under the control of the HIV 5′ LTR. The HIV NL4.3 strain was used for these studies and β-Gal activity was measured 72 hrs post infection (FIG. 3A). Cytotoxicity assays using Cell-Titer-Glo were performed in parallel to assess cell viability (FIG. 3A). […] Their anti-HIV activity was further assessed in acute replication of Jurkat T cells with the NL4.3 strain (FIG. 3A). […] These OM10.1 cells contain a single integrated wild-type provirus, while ACH-2 cells contain a single integrated provirus with a TAR mutation C37T, defective Tat-TAR feedback loop (FIG. 3B).

HIV NL4.3 strain = experiment: HIV infectivity assay, reporter cell line HeLa-CD4-LTR-LacZ, β-Gal activity (Tat protein inhibition); format: cell-based, HIV-1 (NL4.3); details: for pIC50: Human immunodeficiency virus 1, read-out: Infectivity IC50, HeLa-CD4-LTR-LacZ
Experimental: as §1

[2] = HeLa-CD4 cell NL4.3 infection assays

| Compound | CC50 ([1]; analogs of TT-44856 (Table 3)) [µM] | pIC50 (HIV NL4.3 strain; analogs of TT-44856 (Table 3)) | also measured |
| --- | --- | --- | --- |
| O=C(NCCCn1ccnc1)c1ccc(-n2cc(Br)cn2)cc1 [3-40] | > 100 | < 4.00 |  |
| O=C(NCCCn1ccnc1)c1cc2cc(Cl)ccc2[nH]1 [3-41] | > 100 | < 4.00 |  |
| NC(C(=O)NCCCn1ccnc1)(c1ccccc1)c1ccccc1 [3-42] | > 100 | 4.52 to 5.00 |  |
| COc1ccccc1CCNC(=O)C(C)(c1ccccc1)c1ccccc1 [3-43] | 25 to 50 | 4.00 to 4.70 |  |
| CC(C(=O)Nc1cc(OCc2ccccc2)ccn1)(c1ccccc1)c1ccccc1 [3-44] | > 100 | 4.52 to 6.00 |  |
| CC(C(=O)NCCc1ccc(C(F)(F)F)cc1)(c1ccccc1)c1ccccc1 [3-45] | 50 to 100 | 4.70 to 5.00 |  |
| CC(C(=O)NCCc1ccccc1)(c1ccccc1)c1ccccc1 [3-46] | 20 to 50 | 4.00 to 4.30 |  |
| CC(NC(=O)C(C)(c1ccccc1)c1ccccc1)c1ccccc1 (stereo not shown) [3-47] | > 100 | 4.52 to 5.00 |  |
| COc1ccc(C(C(=O)NCCCn2ccnc2)c2ccccc2)cc1 (stereo not shown) [3-48] | > 100 | 4.30 to 4.70 |  |
| CCC(C(=O)NCCCn1ccnc1)(c1ccccc1)c1ccccc1 [3-49] | > 100 | 5.00 to 6.00 |  |
| CC1(C(=O)NCCCn2ccnc2)c2ccccc2-c2ccccc21 [3-50] | > 100 | 4.70 to 6.00 |  |
| CN1CCN(CCNC(=O)C(C)(c2ccccc2)c2ccccc2)CC1 [3-51] | > 100 | < 4.00 |  |
| Cc1nccn1CCCNC(=O)C(C)(c1ccccc1)c1ccccc1 [3-52] | > 100 | 5.00 to 6.00 |  |
| CC(C)c1nccn1CCCNC(=O)C(C)(c1ccccc1)c1ccccc1 [3-54] | 50 to 100 | 4.70 to 6.00 |  |
| CC(C(=O)NCCCN1CCNCC1)(c1ccccc1)c1ccccc1 [3-55] | > 100 | < 4.00 |  |
| CCc1nccn1CCCNC(=O)C(C)(c1ccccc1)c1ccccc1 [3-56] | > 100 | 4.70 to 5.00 |  |
| CCCC(C(=O)NCCCn1ccnc1)(c1ccccc1)c1ccccc1 [3-57] | > 100 | 5.00 to 6.00 |  |
| O=C(NCCCn1ccnc1)C(c1ccccc1)(c1ccccc1)c1ccccc1 [3-58] | > 100 | 4.70 to 6.00 |  |
| CC(C(=O)NCC1CCCNC1)(c1ccccc1)c1ccccc1 (stereo not shown) [3-59] | > 100 | 4.52 to 6.00 |  |
| CCCC(=O)NC(C(=O)NCCCn1ccnc1)(c1ccccc1)c1ccccc1 [3-60] | > 100 | < 4.00 |  |

| Compound | CC50 ([1]; analogs of TT-44856 (Table 3)) [µM] | pIC50 (HIV NL4.3 strain; analogs of TT-44856 (Table 3)) | also measured |
| --- | --- | --- | --- |
| O=C(NCCCn1ccnc1)C1c2ccccc2Oc2ccccc21 [3-61] | > 100 | < 4.00 |  |
| CCCC(=O)NCc1cn(CCCNC(=O)C(C)(c2ccccc2)c2ccccc2)cn1 [3-62] | > 100 | < 4.00 |  |
| O=C(NCCCn1ccnc1)c1nn(-c2ccccc2)c2c1CCC2 [3-63] | 1 to 10 | 5.00 to 6.00 |  |
| CC(C(=O)NCCCn1cnc(CNC(=O)OCc2ccccc2)c1)(c1ccccc1)c1ccccc1 [3-64] | 20 to 50 | 4.52 to 5.00 |  |
| CCCC(C(=O)NCCCn1ccnc1C)(c1ccccc1)c1ccccc1 [3-65] | 50 to 100 | 5.00 to 6.00 |  |
| CCCC(C(=O)NCCCn1c(C)nc2ccccc21)(c1ccccc1)c1ccccc1 [3-66] | 20 to 50 | 4.30 to 4.70 |  |
| Cc1nccn1CCCNC(=O)C(c1ccccc1)(c1ccccc1)c1ccccc1 [3-67] | 50 to 100 | 4.70 to 6.00 |  |
| O=C(NCCCn1cnc2ccccc21)C(c1ccccc1)(c1ccccc1)c1ccccc1 [3-68] | 20 to 50 | 4.52 to 5.00 |  |
| CCC(C(=O)NCCCn1ccnc1C)(c1ccccc1)c1ccccc1 [3-69] | > 100 | 5.00 to 6.00 |  |
| CCC(C(=O)NCCCn1cnc2ccccc21)(c1ccccc1)c1ccccc1 [3-70] | 50 to 100 | 4.30 to 4.70 |  |
| CCC(C(=O)NCCCn1ccnc1)c1ccccc1 (stereo not shown) [3-72] | > 100 | < 4.00 |  |
| O=C1N(CCCn2ccnc2)CCC1(c1ccccc1)c1ccccc1 [3-73] | > 100 | 4.30 to 5.00 |  |
| O=C(NCCCn1ccnc1)C(CCO)(c1ccccc1)c1ccccc1 [3-74] | > 100 | 4.70 to 6.00 |  |
| CCCCOCCC(C(=O)NCCCn1ccnc1)(c1ccccc1)c1ccccc1 [3-75] | > 100 | 4.00 to 4.30 |  |
| CC(C(=O)NCCCc1cccnc1)(c1ccccc1)c1ccccc1 [3-76] | 10 to 30 | 4.52 to 6.00 |  |
| O=C(NCCCN1CCCC1=O)c1nn(-c2ccccc2)c2c1CCCCC2 [GB-03] |  |  | CC50 ([1]; analogs of TT-44881 (Table 1)): > 100 µM; pIC50 (HIV NL4.3 strain; analogs of TT-44881 (Table 1)): < 4.00 |
| CCN(CCCN1CCCC1=O)C(=O)c1nn(-c2ccccc2)c2c1CCC2 [GB-05] |  |  | CC50 ([1]; analogs of TT-44881 (Table 1)): > 100 µM; pIC50 (HIV NL4.3 strain; analogs of TT-44881 (Table 1)): < 4.00 |
| CCCN(CCCN1CCCC1=O)C(=O)c1nn(-c2ccccc2)c2c1CCC2 [GB-06] |  |  | CC50 ([1]; analogs of TT-44881 (Table 1)): > 100 µM; pIC50 (HIV NL4.3 strain; analogs of TT-44881 (Table 1)): 4.52 to 5.30 |
| CCCCN(CCCN1CCCC1=O)C(=O)c1nn(-c2ccccc2)c2c1CCC2 [GB-07] |  |  | CC50 ([1]; analogs of TT-44881 (Table 1)): 50 to 100 µM; pIC50 (HIV NL4.3 strain; analogs of TT-44881 (Table 1)): 4.00 to 4.30 |
| CC(C)N(CCCN1CCCC1=O)C(=O)c1nn(-c2ccccc2)c2c1CCC2 [GB-08] |  |  | CC50 ([1]; analogs of TT-44881 (Table 1)): > 100 µM; pIC50 (HIV NL4.3 strain; analogs of TT-44881 (Table 1)): 4.30 to 4.52 |

| Compound | CC50 ([1]; analogs of TT-44856 (Table 3)) [µM] | pIC50 (HIV NL4.3 strain; analogs of TT-44856 (Table 3)) | also measured |
| --- | --- | --- | --- |
| O=C1CCCN1CCCN(Cc1ccccc1)C(=O)c1nn(-c2ccccc2)c2c1CCC2 [GB-09] |  |  | CC50 ([1]; analogs of TT-44881 (Table 1)): 25 to 50 µM; pIC50 (HIV NL4.3 strain; analogs of TT-44881 (Table 1)): 4.30 to 4.60 |
| O=C(NCCCN1CCCC1=O)c1nn(-c2ccccc2)c2c1CCC1(C2)OCCO1 [GB-10] |  |  | CC50 ([1]; analogs of TT-44881 (Table 1)): > 100 µM; pIC50 (HIV NL4.3 strain; analogs of TT-44881 (Table 1)): < 4.00 |
| O=C1CCc2c(C(=O)NCCCN3CCCC3=O)nn(-c3ccccc3)c2C1 [GB-11] |  |  | CC50 ([1]; analogs of TT-44881 (Table 1)): > 100 µM; pIC50 (HIV NL4.3 strain; analogs of TT-44881 (Table 1)): 4.70 to 5.00 |
| O=C(NCCCN1CCCC1=O)c1nn(-c2ccccc2)c2c1CCC(O)C2 (stereo not shown) [GB-12] |  |  | CC50 ([1]; analogs of TT-44881 (Table 1)): > 100 µM; pIC50 (HIV NL4.3 strain; analogs of TT-44881 (Table 1)): 5.00 to 6.00 |
| CCc1cc(C(=O)NCCCN2CCCC2=O)nn1-c1ccccc1 [GB-13] |  |  | CC50 ([1]; analogs of TT-44881 (Table 1)): > 100 µM; pIC50 (HIV NL4.3 strain; analogs of TT-44881 (Table 1)): 4.70 to 5.00 |
| Cc1cc(C(=O)NCCCN2CCCC2=O)nn1-c1ccccc1 [GB-14] |  |  | CC50 ([1]; analogs of TT-44881 (Table 1)): > 100 µM; pIC50 (HIV NL4.3 strain; analogs of TT-44881 (Table 1)): < 4.00 |
| Cc1cc(C(=O)N(C)CCCN2CCCC2=O)nn1-c1ccccc1 [GB-15] |  |  | CC50 ([1]; analogs of TT-44881 (Table 1)): > 100 µM; pIC50 (HIV NL4.3 strain; analogs of TT-44881 (Table 1)): < 4.00 |
| CCN(CCCN1CCCC1=O)C(=O)c1cc(C)n(-c2ccccc2)n1 [GB-16] |  |  | CC50 ([1]; analogs of TT-44881 (Table 1)): > 100 µM; pIC50 (HIV NL4.3 strain; analogs of TT-44881 (Table 1)): < 4.00 |
| CCCN(CCCN1CCCC1=O)C(=O)c1cc(C)n(-c2ccccc2)n1 [GB-17] |  |  | CC50 ([1]; analogs of TT-44881 (Table 1)): > 100 µM; pIC50 (HIV NL4.3 strain; analogs of TT-44881 (Table 1)): < 4.00 |
| COc1ccc(C(F)(F)F)cc1NC(=O)Cn1cc(C(F)(F)F)cc(Cl)c1=O [TT-46600] |  |  | CC50 ([1]; analogs of TT-44863 (Table 2)): > 100 µM; increase of potency vs TT-44863 (HIV NL4.3 strain; [2]): ~ 5 fold; pIC50 (HIV NL4.3 strain; analogs of TT-44863 (Table 2)): 5.00 to 6.00 |
| COc1ccc(Cl)cc1NC(=O)Cn1cc(C(F)(F)F)cc(Cl)c1=O [TT-46603] |  |  | CC50 ([1]; analogs of TT-44863 (Table 2)): 50 to 100 µM; decrease of potency vs TT-44863 (HIV NL4.3 strain; [2]): ~ 5 fold; pIC50 (HIV NL4.3 strain; analogs of TT-44863 (Table 2)): 4.52 to 4.70 |
| CC(NC(=O)C(c1ccccc1)c1ccccc1)c1ccc(-n2ccnc2)cc1 (stereo not shown) [Z27307031] | > 100 | 4.70 to 6.00 |  |
| Cc1ccc(CC(=O)NCCCn2cnc3ccccc32)cc1 [Z102452176] | > 100 | 4.52 to 5.00 |  |
| COc1ccc(NC(=O)Cn2cc(C(F)(F)F)cc(Cl)c2=O)cc1C(F)(F)F [compound 44] |  |  | CC50 ([1]; analogs of TT-44863 (Table 2)): > 100 µM; pIC50 (HIV NL4.3 strain; analogs of TT-44863 (Table 2)): < 4.00 |
| COc1ccc(OC(F)(F)F)cc1NC(=O)Cn1cc(C(F)(F)F)cc(Cl)c1=O [compound 45] |  |  | CC50 ([1]; analogs of TT-44863 (Table 2)): > 100 µM; pIC50 (HIV NL4.3 strain; analogs of TT-44863 (Table 2)): 5.00 to 6.00 |
| CC(C)(C)OC(=O)COCCOCCOc1ccc(C(F)(F)F)cc1NC(=O)Cn1cc(C(F)(F)F)cc(Cl)c1=O [compound 47] |  |  | CC50 ([1]; analogs of TT-44863 (Table 2)): > 100 µM; pIC50 (HIV NL4.3 strain; analogs of TT-44863 (Table 2)): 4.00 to 4.30 |
| O=C(O)COCCOCCOc1ccc(C(F)(F)F)cc1NC(=O)Cn1cc(C(F)(F)F)cc(Cl)c1=O [compound 48] |  |  | CC50 ([1]; analogs of TT-44863 (Table 2)): > 100 µM; pIC50 (HIV NL4.3 strain; analogs of TT-44863 (Table 2)): < 4.00 |
| COc1ccc(C(F)(F)F)cc1NC(=O)C(C)n1cc(C(F)(F)F)cc(Cl)c1=O (stereo not shown) [compound 49] |  |  | CC50 ([1]; analogs of TT-44863 (Table 2)): > 100 µM; pIC50 (HIV NL4.3 strain; analogs of TT-44863 (Table 2)): 4.70 to 6.00 |
